According to paper PMC5623949, “Exploiting the 2-Amino-1,3,4-thiadiazole Scaffold To Inhibit Trypanosoma brucei Pteridine Reductase in Support of Early-Stage Drug Discovery” (ACS Omega, 2017):
Read-outs that look alike come from different tables or passages of the source.

Legend:
[1] = target: T1, hDHFR (Homo sapiens, UniProt P00374); test: biochemical; design: human DHFR enzyme inhibition
T1 construct: gene DHFR
T1 sequence (P00374 1-187): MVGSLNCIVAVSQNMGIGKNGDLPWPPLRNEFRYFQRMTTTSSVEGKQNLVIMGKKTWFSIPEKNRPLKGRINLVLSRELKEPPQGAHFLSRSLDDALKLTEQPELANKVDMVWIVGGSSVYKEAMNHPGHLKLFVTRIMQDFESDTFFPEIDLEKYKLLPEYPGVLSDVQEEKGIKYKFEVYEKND
Procedure: Figure 10 Summary heat map of the in vitro assays to determine possible liability issues for all synthesized compounds. Assays were performed to assess inhibition of hERG and five CYP isoforms (1A2, 2C9, 2C19, 2D6, and 3A4), growth inhibition of A549 and W1-38 cell lines, and mitochondrial toxicity at 10 μM. The hDHFR inhibition was determined at 100 μM. The data, expressed as percentage values, were organized by adopting a color code for rapid and intuitive visualization. The ideal compound should have all tiles blue, indicating a safe toxicological profile for progressing into the development pipeline. The cells are colored from blue (100% of cell growth at the tested concentration) to red (0% of cell growth at the tested concentration) for A549 and W1-38 and from blue (0% of inhibitory activity at the tested concentration) to red (100% of inhibitory activity at the tested concentration) for CYP isoforms, hERG, hDHFR, and mitochondrial toxicity.

[2] = in vitro; design: cytotoxicity, per cent cell growth of WI-38 fibroblasts; conditions: human, wi-38 cells; read-out: % cell growth W1-38 at 10uM
[3] = target: T2, CYP1A2 (Homo sapiens, UniProt P05177); test: in vitro; design: cytochrome P450 isoform inhibition liability assay
T2 sequence (P05177 1-516): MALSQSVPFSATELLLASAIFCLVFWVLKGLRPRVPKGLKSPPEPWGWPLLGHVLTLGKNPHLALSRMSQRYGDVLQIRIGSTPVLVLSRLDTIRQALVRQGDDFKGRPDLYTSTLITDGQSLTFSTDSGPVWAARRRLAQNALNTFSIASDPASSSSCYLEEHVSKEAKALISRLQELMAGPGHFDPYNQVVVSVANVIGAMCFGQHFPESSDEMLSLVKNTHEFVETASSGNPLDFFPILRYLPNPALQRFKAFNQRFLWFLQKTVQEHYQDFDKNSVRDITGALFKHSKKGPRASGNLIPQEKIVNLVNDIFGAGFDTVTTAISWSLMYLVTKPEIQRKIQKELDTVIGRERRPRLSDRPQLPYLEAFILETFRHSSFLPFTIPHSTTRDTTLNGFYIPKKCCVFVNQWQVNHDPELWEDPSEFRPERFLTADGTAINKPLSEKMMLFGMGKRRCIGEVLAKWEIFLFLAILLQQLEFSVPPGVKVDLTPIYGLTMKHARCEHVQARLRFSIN

[4] = target: CYP2C9 (Homo sapiens, UniProt P11712); test: in vitro; design: cytochrome P450 isoform inhibition liability assay
Chain of CYP2C9 (P11712 whole entry, canonical isoform): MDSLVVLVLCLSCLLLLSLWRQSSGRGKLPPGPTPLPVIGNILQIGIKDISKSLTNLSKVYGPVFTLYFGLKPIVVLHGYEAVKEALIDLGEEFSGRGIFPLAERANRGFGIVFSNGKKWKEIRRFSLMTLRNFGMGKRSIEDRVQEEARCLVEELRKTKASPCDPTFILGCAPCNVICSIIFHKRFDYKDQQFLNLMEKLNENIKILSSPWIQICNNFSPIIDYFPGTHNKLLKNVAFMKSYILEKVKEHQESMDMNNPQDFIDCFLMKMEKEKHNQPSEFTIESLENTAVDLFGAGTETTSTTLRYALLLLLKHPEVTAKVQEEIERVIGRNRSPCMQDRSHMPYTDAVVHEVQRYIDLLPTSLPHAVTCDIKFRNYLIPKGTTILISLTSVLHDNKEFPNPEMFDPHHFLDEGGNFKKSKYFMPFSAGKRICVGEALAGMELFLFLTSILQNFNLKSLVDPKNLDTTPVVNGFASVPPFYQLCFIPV

[5] = target: CYP2D6 (Homo sapiens, UniProt P10635); test: in vitro; design: cytochrome P450 isoform inhibition liability assay
Chain of CYP2D6 (P10635 whole entry, canonical isoform): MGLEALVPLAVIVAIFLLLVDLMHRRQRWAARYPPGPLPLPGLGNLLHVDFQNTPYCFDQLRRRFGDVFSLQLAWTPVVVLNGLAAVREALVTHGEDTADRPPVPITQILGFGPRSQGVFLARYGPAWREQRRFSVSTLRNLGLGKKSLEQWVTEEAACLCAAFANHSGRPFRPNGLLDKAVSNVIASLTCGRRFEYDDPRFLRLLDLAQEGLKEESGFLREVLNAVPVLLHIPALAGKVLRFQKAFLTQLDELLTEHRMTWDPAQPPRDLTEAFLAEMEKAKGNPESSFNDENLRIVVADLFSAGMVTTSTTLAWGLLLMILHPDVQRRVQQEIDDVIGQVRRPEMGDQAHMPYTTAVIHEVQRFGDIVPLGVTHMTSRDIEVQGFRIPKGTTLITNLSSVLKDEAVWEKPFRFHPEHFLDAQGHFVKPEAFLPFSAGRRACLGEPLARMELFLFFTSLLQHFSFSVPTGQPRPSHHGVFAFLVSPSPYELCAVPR

[6] = target: CYP2C19 (Homo sapiens, UniProt P33261); test: in vitro; design: cytochrome P450 isoform inhibition liability assay
Chain of CYP2C19 (P33261 whole entry, canonical isoform): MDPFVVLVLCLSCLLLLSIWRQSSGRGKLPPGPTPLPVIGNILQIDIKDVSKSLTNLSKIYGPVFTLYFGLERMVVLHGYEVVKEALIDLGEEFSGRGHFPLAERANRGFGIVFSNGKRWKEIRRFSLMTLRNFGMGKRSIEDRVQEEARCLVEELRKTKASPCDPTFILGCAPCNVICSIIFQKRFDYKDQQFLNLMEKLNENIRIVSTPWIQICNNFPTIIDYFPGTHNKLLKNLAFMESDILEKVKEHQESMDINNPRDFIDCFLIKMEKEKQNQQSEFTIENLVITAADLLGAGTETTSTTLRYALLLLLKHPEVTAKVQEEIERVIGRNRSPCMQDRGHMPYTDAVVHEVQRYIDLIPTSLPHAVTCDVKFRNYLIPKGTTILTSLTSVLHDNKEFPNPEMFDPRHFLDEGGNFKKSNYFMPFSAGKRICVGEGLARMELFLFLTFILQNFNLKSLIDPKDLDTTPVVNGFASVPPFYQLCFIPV

[7] = target: CYP3A4 (Homo sapiens, UniProt P08684); test: in vitro; design: cytochrome P450 isoform inhibition liability assay
Chain of CYP3A4 (P08684 whole entry, canonical isoform): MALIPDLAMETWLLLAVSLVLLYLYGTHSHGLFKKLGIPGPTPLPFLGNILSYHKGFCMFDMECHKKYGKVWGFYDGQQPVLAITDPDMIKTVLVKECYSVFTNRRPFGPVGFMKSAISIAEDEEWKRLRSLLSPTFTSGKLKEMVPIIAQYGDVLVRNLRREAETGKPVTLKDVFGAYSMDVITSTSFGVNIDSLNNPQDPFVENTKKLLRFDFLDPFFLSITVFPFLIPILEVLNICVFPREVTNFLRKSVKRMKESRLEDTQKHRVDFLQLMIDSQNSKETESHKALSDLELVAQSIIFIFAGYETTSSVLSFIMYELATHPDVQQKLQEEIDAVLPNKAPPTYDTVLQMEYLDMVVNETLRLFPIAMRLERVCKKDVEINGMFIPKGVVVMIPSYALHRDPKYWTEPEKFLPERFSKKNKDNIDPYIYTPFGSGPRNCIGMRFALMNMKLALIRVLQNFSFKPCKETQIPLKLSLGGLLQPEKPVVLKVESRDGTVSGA

[8] = test system: T. b. brucei Lister 427 bloodstream forms; test: In vitro activity against T. brucei (HTS SYBR Green I growth inhibition assay); type: cell-based, Trypanosoma brucei brucei; conditions: for inhibition at 50 µM: read-out: % Inhibition T. brucei at 50 μM
[9] = target: T3, TbPTR1 (Trypanosoma brucei brucei, UniProt O76290); test: biochemical; conditions: for inhibition at 50 µM: read-out: % Inhibition TbPTR1 at 50 μM
T3 construct: made in house
T3 sequence (O76290 1-268): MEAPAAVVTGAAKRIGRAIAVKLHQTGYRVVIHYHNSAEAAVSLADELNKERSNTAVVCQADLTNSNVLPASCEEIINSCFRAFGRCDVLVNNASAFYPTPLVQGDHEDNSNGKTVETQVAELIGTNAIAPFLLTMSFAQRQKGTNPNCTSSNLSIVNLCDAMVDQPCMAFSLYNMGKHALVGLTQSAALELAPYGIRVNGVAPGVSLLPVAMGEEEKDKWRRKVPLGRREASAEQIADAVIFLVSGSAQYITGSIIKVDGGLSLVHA

[10] = test system: 786-O; test: cells; design: mitochondrial toxicity in 786-O renal carcinoma cells; conditions: Homo sapiens, 786-0; mitochondrial toxicity
[11] = in vitro; design: cytotoxicity, per cent cell growth of A549 cells; conditions: human, a549 cells; read-out: % cell growth A549 at 10uM
[12] = target: T4, hERG (Homo sapiens, UniProt Q12809); design: hERG inhibition liability assay
T4 construct: gene KCNH2
T4 sequence (Q12809 whole entry): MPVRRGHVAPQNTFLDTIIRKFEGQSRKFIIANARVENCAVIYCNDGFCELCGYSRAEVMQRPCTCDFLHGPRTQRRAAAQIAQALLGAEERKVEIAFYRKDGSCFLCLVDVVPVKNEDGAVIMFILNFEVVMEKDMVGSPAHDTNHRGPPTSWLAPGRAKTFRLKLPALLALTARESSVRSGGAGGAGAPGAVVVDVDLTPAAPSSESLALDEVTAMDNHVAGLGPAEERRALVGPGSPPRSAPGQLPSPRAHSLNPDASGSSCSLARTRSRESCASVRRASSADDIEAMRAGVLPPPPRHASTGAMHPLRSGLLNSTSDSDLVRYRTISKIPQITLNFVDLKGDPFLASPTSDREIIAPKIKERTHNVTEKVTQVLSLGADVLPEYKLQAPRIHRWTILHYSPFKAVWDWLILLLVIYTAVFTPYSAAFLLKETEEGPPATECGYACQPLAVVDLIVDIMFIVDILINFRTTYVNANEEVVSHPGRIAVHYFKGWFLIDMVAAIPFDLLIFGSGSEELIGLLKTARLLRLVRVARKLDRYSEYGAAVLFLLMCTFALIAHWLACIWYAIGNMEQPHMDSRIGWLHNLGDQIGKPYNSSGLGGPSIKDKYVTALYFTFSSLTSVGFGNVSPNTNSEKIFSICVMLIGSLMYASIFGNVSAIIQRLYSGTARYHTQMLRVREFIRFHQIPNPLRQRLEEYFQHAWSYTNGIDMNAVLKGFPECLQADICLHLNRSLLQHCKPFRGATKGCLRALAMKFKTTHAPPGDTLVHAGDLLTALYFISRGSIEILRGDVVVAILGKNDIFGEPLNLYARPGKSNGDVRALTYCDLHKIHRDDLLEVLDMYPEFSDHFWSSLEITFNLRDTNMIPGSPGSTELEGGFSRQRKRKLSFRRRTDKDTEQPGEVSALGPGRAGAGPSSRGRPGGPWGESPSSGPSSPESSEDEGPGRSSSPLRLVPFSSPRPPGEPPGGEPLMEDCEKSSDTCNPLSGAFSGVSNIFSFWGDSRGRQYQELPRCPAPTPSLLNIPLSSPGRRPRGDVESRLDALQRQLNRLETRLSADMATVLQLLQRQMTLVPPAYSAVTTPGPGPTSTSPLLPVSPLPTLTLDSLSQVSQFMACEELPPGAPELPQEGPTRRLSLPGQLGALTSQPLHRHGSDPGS

[13] = Trypanosoma brucei, 50 μM, standard deviation within ±10% of the value

COc1cccc(OC)c1-c1nnc(N)s1 [1g]
inhibition at 100 µM [1]: 12%
viability at 10 µM [2]: 80.3 ± 6.8%
inhibition at 10 µM [3]: 8.9 ± 0.3%
inhibition at 10 µM [4]: -5.6 ± 1.3%
inhibition at 10 µM [5]: -30.5 ± 5.6%
inhibition at 10 µM [6]: -30.6 ± 12.9%
inhibition at 10 µM [7]: 13 ± 6.4%
inhibition at 50 µM [8, 13]: 4.2%
inhibition at 50 µM ([9]; 50 μM compound): 14.1 ± 1.2%
inhibition at 10 µM [10]: -3.9 ± 2%
viability at 10 µM [11]: 149.9 ± 0.3%
inhibition at 10 µM [12]: 4.3 ± 2%

Nc1nnc(-c2cccc(-c3ccccc3)c2)s1 [2c]
inhibition at 25 µM ([1]; 25 uM): 23%
viability at 10 µM [2]: 87.2 ± 13.8%
inhibition at 10 µM [3]: 101 ± 1.4%
inhibition at 10 µM [4]: 24.1 ± 0.4%
inhibition at 10 µM [5]: 48.2 ± 2.3%
inhibition at 10 µM [6]: 65.1 ± 6.8%
inhibition at 10 µM [7]: 59.5 ± 3.7%
inhibition at 50 µM [8, 13]: 14.4%
inhibition at 50 µM ([9]; 50 μM compound): 25.2 ± 1.4%
inhibition at 10 µM [10]: 0%
viability at 10 µM [11]: 115 ± 5.3%
inhibition at 10 µM [12]: 83.7 ± 2.5%

Nc1nnc(-c2cc(O)c(O)c(O)c2)s1 [1f, 3′,4′,5′-trihydroxy-phenyl-1,3,4-thiadiazole]
inhibition at 100 µM [1]: 31%
viability at 10 µM [2]: 111 ± 12.9%
inhibition at 10 µM [3]: 71.4 ± 6.9%
inhibition at 10 µM [4]: 38.2 ± 5.4%
inhibition at 10 µM [5]: -6 ± 7.3%
inhibition at 10 µM [6]: 67.4 ± 7.3%
inhibition at 10 µM [7]: 67.7 ± 3.1%
% Inhibition T. brucei at 50 μM ([8]; 50 μM, standard deviation within ±10% of the value): 100.0%
EC50 ([8]; Trypanosoma brucei, standard deviation within ±10% of the value, read-out: EC50 T. brucei): 1000 nM
% Inhibition TbPTR1 at 50 μM ([9]; 50 μM compound): did not show inhibition
inhibition at 50 µM ([9]; 50 μM compound): 44.9 ± 0.9%
IC50 ([9]; dose-response 0.001-100 μM): 41 µM
inhibition at 10 µM [10]: -9.6 ± 7.9%
viability at 10 µM [11]: 118 ± 3.1%
inhibition at 10 µM [12]: 3.3 ± 2.2%

Nc1nnc(N2CCC(Cc3ccccc3)CC2)s1 [4r, 5G(4GbenzylpiperidinG1Gyl)G1,3,4GthiadiazolG2Gamine]
inhibition at 100 µM [1]: 13%
viability at 10 µM [2]: 92.7 ± 15.7%
inhibition at 10 µM [3]: 20 ± 1.2%
inhibition at 10 µM [4]: 45.9 ± 3.3%
inhibition at 10 µM [5]: 82.7 ± 0.6%
inhibition at 10 µM [6]: 89.4 ± 2%
inhibition at 10 µM [7]: 21.7 ± 4.3%
inhibition at 50 µM [8, 13]: 1.8%
inhibition at 50 µM ([9]; 50 μM compound): 8.4 ± 0.3%
inhibition at 10 µM [10]: -7.3 ± 10.5%
viability at 10 µM [11]: 111 ± 6.5%
inhibition at 10 µM [12]: 46.5 ± 4.7%

Nc1nnc(-c2ccc(OCc3ccc(Cl)c(Cl)c3)cc2)s1 [1r]
inhibition at 100 µM [1]: 17%
viability at 10 µM [2]: 68.7 ± 17.9%
inhibition at 10 µM [3]: 24.7 ± 1.4%
inhibition at 10 µM [4]: 31.3 ± 0.4%
inhibition at 10 µM [5]: 48 ± 0.9%
inhibition at 10 µM [6]: 69.6 ± 5.2%
inhibition at 10 µM [7]: 14.9 ± 5.7%
inhibition at 50 µM [8, 13]: 58.4%
inhibition at 50 µM ([9]; 50 μM compound): < 0%
inhibition at 10 µM [10]: 4.7 ± 7.8%
viability at 10 µM [11]: 104 ± 6.6%
inhibition at 10 µM [12]: 40.7 ± 7.5%

CN(C)CCc1nnc(N)s1 [3i]
inhibition at 100 µM [1]: 12%
viability at 10 µM [2]: 114 ± 22.2%
inhibition at 10 µM [3]: -3.2 ± 4.2%
inhibition at 10 µM [4]: -13.5 ± 3.9%
inhibition at 10 µM [5]: -35.4 ± 5%
inhibition at 10 µM [6]: -30.1 ± 15.1%
inhibition at 10 µM [7]: -14.3 ± 3.1%
inhibition at 50 µM ([8]; Trypanosoma brucei): < 0%
inhibition at 50 µM [9]: 5.6 ± 0.6%
inhibition at 10 µM [10]: -12.4 ± 3.4%
viability at 10 µM [11]: 143 ± 11.8%
inhibition at 10 µM [12]: 0.7 ± 2.8%
